Source: article PMC7467771, “Lipophilic Arginine Esters: The Gateway to Preservatives without Side Effects” (Molecular Pharmaceutics, 2020)

Legend:
[1] = test system: Staphylococcus aureus ATCC 29213; test: disk diffusion method; type: cell-based; conditions: Staphylococcus aureus, ATCC29213, read-out: zones of inhibition
Method: (§1) Following bacterial strains were used for antimicrobial susceptibility testing: Escherichia coli ATCC 25922, Staphylococcus aureus ATCC 29213, Bacillus subtilis ATCC 6633, and Enterococcus faecalis ATCC 19433, which were obtained from the American Type Culture Collection (ATCC, Virginia, USA).
(§2) The disk diffusion method was used for the initial assessment of the antimicrobial activity of Arg-esters. Mueller Hinton agar (MHA, Biomerieux) medium was prepared according to the manufacturer protocol and poured into Petri dishes. All testing microorganisms were dissolved in saline and set to a 0.5 McFarland standard turbidity. This corresponds to a bacterial concentration of 1.5 × 10^8 colony-forming units per milliliter (CFU mL^–1). The bacterial suspension was then swabbed over solidified MHA Petri dishes ensuring homogeneous distribution. The test solutions of Arg-OL, Arg-DT, BAC, and cetrimide were prepared in water with 10% (v/v) DMSO at a concentration of 10 mg mL^–1. Water with 10% (v/v) DMSO was used as a negative control. The diffusion disks of about 6 mm in diameter were prepared from Whatman filter paper. After immersing disks in the above-prepared test solutions, they were placed on MHA plates already swabbed with different bacteria. After overnight incubation of Petri dishes at 37 °C, clear zones of bacterial growth inhibition around disks were measured.

[2] = test system: Escherichia coli ATCC 25922; test: disk diffusion method; type: cell-based; conditions: Escherichia coli, ATCC25922, read-out: zones of inhibition
Method: as §1, §2

[3] = test system: Bacillus subtilis ATCC 6633; test: disk diffusion method; type: cell-based; conditions: Bacillus subtilis, ATCC6633, read-out: zones of inhibition
Method: as §1, §2

[4] = test system: Enterococcus faecalis ATCC 19433; test: disk diffusion method; type: cell-based; conditions: Enterococcus faecalis, ATCC19433, read-out: zones of inhibition
Method: as §1, §2

[5] = test system: Staphylococcus aureus ATCC 29213; test: MIC testing by the microdilution method; type: cell-based; conditions: Staphylococcus aureus, ATCC29213, read-out: minimum inhibitory concentration
Method: as §1
(§3) The MIC is the lowest concentration of a substance that leads to a clearly visible growth inhibition after a defined incubation period. To evaluate the MIC of Arg-DT, Arg-OL, BAC, and cetrimide, a microdilution test was performed according to the guidelines of the Clinical and Laboratory Standards Institute.[19] First of all, similarly, as for the disk diffusion test, microorganisms were dissolved in saline and set to a 0.5 McFarland standard turbidity. This corresponds to a bacterial concentration of 1.5 × 10^8 colony-forming units per milliliter (CFU mL^–1); 50 μL of the bacterial suspension was added to 10 mL of Mueller Hinton Bouillon (MHB, Becton Dickinson, New Jersey, USA). The stock solutions were prepared as follows: the test compounds Arg-OL, Arg-DT, BAC, and cetrimide were dissolved in water with 10% (v/v) DMSO at a concentration of 10 mg mL^–1. The obtained solutions were used to prepare serial dilutions. The tested concentration for each substance ranged from 5000 to 5 μg mL^–1. Each test sample was added to a flat-bottomed tissue plate well in the volume of 75 μL. The first well of the tissue plate containing 75 μL of water with 10% (v/v) DMSO instead of any test sample was used as a positive control. Finally, 75 μL of the bacterial suspension was added to each well, and the plates were incubated at 37 °C overnight.
(§4) Before measuring the optical density (OD), plates were shaken for 15 min at 250 rpm. The OD was measured using the Bio-Rad 680 microplate reader (Hercules, California, USA) at a wavelength of 490 nm. Inhibition of bacterial growth was defined as a reduction of growth for at least 5 log units. Experiments were performed three times under analogous conditions for each bacterial strain and each tested sample.

[6] = test system: Escherichia coli ATCC 25922; test: MIC testing by the microdilution method; type: cell-based; conditions: Escherichia coli, ATCC25922, read-out: minimum inhibitory concentration
Method: as §1, §3, §4

[7] = test system: Bacillus subtilis ATCC 6633; test: MIC testing by the microdilution method; type: cell-based; conditions: Bacillus subtilis, ATCC6633, read-out: minimum inhibitory concentration
Method: as §1, §3, §4

[8] = test system: Enterococcus faecalis ATCC 19433; test: MIC testing by the microdilution method; type: cell-based; conditions: Enterococcus faecalis, ATCC19433, read-out: minimum inhibitory concentration
Method: as §1, §3, §4

[9] = critical micelle concentration (CMC), pyrene fluorescent method; type: physicochemical; conditions: aqueous solution, 37 °C, 3 h
Method: The critical micelle concentration (CMC) is an important solution property of any amphiphilic compound and can be defined as the minimum concentration at which micelles start to form. The CMC of Arg-esters was determined using a pyrene fluorescent method as described in a previous publication.[15] Methanol solution of pyrene (2 μM) was added to several vials (250 μL per vial) and evaporated overnight to leave thin dried films of pyrene. Aqueous solutions of Arg-esters were prepared in a wide concentration range and were added to individual vials containing pyrene films in a 500 μL volume. The samples were left stirring at 400 rpm, 37 °C. After 3 h, the fluorescence of each sample was measured at the excitation wavelength of 334 nm, and emissions were taken at 372 (I1) nm and 393 nm (I3). A graph was plotted between the fluorescent intensity ratio (I3/I1) and the log concentration of Arg-ester. Then, from the resulting curve for each Arg-ester, the “CMC value” was calculated. For the calculation of the CMC, the segmental linear regression method was used, and CMC values were obtained as the concentration corresponding to the intercept of the extrapolations of the first segment and the rapidly varying second segment of the I3/I1 versus log concentration plot. […]

SMILES | zone of inhibition at 10 µg/mL [1] | zone of inhibition at 10 µg/mL [2] | zone of inhibition at 10 µg/mL [3] | zone of inhibition at 10 µg/mL [4] | MIC [5] | MIC [6] | MIC [7] | MIC [8] | critical micelle concentration (CMC) [9]
CCCCCCCCCCCCC(CCCCCCCCCC)COC(=O)[C@@H](N)CCCNC(=N)N.O=C(O)C(F)(F)F (stereo partly drawn) [Arg-DT, 2-Decyltetradecyl Argininate Trifluoroacetate] | 16 mm | 9 mm | 18 mm | 16 mm | 10 µg/mL | 39 µg/mL | 5 µg/mL | 10 µg/mL | 0.013 mM
CCCCCCCCC=CCCCCCCCCOC(=O)[C@@H](N)CCCNC(=N)N.O=C(O)C(F)(F)F [Arg-OL, Octadec-9-en-1-yl Argininate Trifluoroacetate] | 19 mm | 9 mm | 16 mm | 18 mm | 10 µg/mL | 20 µg/mL | 5 µg/mL | 5 µg/mL | 0.52 mM
